Patent US9694016B2 (Novartis AG, priority 2013, dated 2017)

These compounds were tested against b-Raf (V600E) (Homo sapiens (Human), UniProt P15056, V600E). Details: read-out: b-Raf IC-50; Table 2; AlphaScreen, 3 hours reaction.
Sequence of b-Raf (V600E) (P15056 whole entry V600E): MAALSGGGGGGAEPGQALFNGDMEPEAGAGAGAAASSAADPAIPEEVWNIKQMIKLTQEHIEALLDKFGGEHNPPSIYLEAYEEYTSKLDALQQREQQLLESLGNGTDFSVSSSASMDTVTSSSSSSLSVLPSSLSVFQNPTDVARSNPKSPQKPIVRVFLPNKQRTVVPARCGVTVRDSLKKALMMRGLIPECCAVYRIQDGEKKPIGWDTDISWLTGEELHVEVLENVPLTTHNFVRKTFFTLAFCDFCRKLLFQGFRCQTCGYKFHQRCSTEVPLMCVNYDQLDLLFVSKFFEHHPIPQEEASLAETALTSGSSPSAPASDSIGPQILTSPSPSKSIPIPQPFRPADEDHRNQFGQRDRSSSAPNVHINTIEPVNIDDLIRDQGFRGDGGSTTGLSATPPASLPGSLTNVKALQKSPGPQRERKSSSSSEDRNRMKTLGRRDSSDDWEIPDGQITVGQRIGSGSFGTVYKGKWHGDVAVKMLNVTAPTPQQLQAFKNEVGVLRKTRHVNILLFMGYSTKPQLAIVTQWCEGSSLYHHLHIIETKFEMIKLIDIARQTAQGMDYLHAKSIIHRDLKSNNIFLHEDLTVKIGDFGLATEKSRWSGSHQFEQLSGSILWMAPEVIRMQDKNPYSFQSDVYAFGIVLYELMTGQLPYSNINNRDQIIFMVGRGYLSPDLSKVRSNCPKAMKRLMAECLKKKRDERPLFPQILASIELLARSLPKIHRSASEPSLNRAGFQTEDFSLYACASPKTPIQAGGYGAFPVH

Row | SMILES | IC50 [nM]
1 | CCC(F)(F)c1cc(C(=O)Nc2ccc(C)c(-c3cc(N4CCOCC4)c(=O)n(C)c3)c2)ccn1 [Example 341, 2-(1,1-difluoropropyl)-N-(4-methyl-3-(1-methyl-5-morpholino-6-oxo-1,6-dihydropyridin-3-yl)phenyl)isonicotinamide] | 2
2 | CCOc1cc(C(=O)Nc2ccc(C)c(-c3cc(N4CCOCC4)c(=O)n(C)c3)c2)ccc1F [Example 344, 3-ethoxy-4-fluoro-N-(4-methyl-3-(1-methyl-5-morpholino-6-oxo-1,6-dihydropyridin-3-yl)phenyl)benzamide] | 3.1
3 | Cc1ccc(NC(=O)c2cccc(OC(C)C)c2)cc1-c1cc(N2CCOCC2)c(=O)n(C)c1 [Example 345, 3-isopropoxy-N-(4-methyl-3-(1-methyl-5-morpholino-6-oxo-1,6-dihydropyridin-3-yl)phenyl)benzamide] | 1.6
4 | Cc1ccc(NC(=O)c2cccc(C3(C#N)CC3)c2Cl)cc1-c1cc(N2CCOCC2)c(=O)n(C)c1 [Example 346, 2-chloro-3-(1-cyanocyclopropyl)-N-(4-methyl-3-(1-methyl-5-morpholino-6-oxo-1,6-dihydropyridin-3-yl)phenyl)benzamide] | 8.7
5 | Cc1ccc(NC(=O)c2ccnc(C(C)C)c2)cc1-c1cc(N2CCOCC2)c(=O)n(C)c1 [Example 348, 2-isopropyl-N-(4-methyl-3-(1-methyl-5-morpholino-6-oxo-1,6-dihydropyridin-3-yl)phenyl)isonicotinamide] | 2.7
6 | Cc1ccc(NC(=O)c2cccc(-c3nnco3)c2)cc1-c1cc(N2CCOCC2)c(=O)n(C)c1 [Example 349, N-(4-methyl-3-(1-methyl-5-morpholino-6-oxo-1,6-dihydropyridin-3-yl)phenyl)-3-(1,3,4-oxadiazol-2-yl)benzamide] | 6.2
7 | Cc1ccc(NC(=O)c2ccnc(C(C)(C)O)c2)cc1-c1cc(N2CCOCC2)c(=O)n(C)c1 [Example 350, 2-(2-hydroxypropan-2-yl)-N-(4-methyl-3-(1-methyl-5-morpholino-6-oxo-1,6-dihydropyridin-3-yl)phenyl)isonicotinamide] | 3.5
8 | Cc1ccc(NC(=O)c2cccc(C(C)(C)S(C)(=O)=O)c2)cc1-c1cc(N2CCOCC2)c(=O)n(C)c1 [Example 351, N-(4-methyl-3-(1-methyl-5-morpholino-6-oxo-1,6-dihydropyridin-3-yl)-phenyl)-3-(2-(methylsulfonyl)propan-2-yl)benzamide] | 19.5
9 | Cc1ccc(NC(=O)c2ccnc(C3CC3)c2)cc1-c1cc(N2CCOCC2)c(=O)n(C)c1 [Example 354, 2-cyclopropyl-N-(4-methyl-3-(1-methyl-5-morpholino-6-oxo-1,6-dihydropyridin-3-yl)phenyl)isonicotinamide] | 1
10 | Cc1ccc(NC(=O)c2ccnc(C3COC3)c2)cc1-c1cc(N2CCOCC2)c(=O)n(C)c1 [Example 356, N-(4-methyl-3-(1-methyl-5-morpholino-6-oxo-1,6-dihydropyridin-3-yl)phenyl)-2-(oxetan-3-yl)isonicotinamide] | 3.9
11 | Cc1ccc(NC(=O)c2ccnc(C3(C#N)CC3)c2)cc1-c1cc(N2CCOCC2)c(=O)n(C)c1 [Example 357, 2-(1-cyanocyclopropyl)-N-(4-methyl-3-(1-methyl-5-morpholino-6-oxo-1,6-dihydropyridin-3-yl)phenyl)isonicotinamide] | 3.4
12 | Cc1ccc(NC(=O)c2cccc(CC#N)c2)cc1-c1cc(N2CCOCC2)c(=O)n(C)c1 [Example 359, 3-(cyanomethyl)-N-(4-methyl-3-(1-methyl-5-morpholino-6-oxo-1,6-dihydropyridin-3-yl)phenyl)benzamide] | 5.5
13 | Cc1ccc(NC(=O)c2cnnc(C(F)(F)F)c2)cc1-c1cc(N2CCOCC2)c(=O)n(C)c1 [Example 361, N-(4-methyl-3-(1-methyl-5-morpholino-6-oxo-1,6-dihydropyridin-3-yl)phenyl)-6-(trifluoromethyl)pyridazine-4-carboxamide] | 2.8
14 | Cc1ccc(NC(=O)c2cnnc(C3CC3)c2)cc1-c1cc(N2CCOCC2)c(=O)n(C)c1 [Example 362, 6-cyclopropyl-N-(4-methyl-3-(1-methyl-5-morpholino-6-oxo-1,6-dihydropyridin-3-yl)phenyl)pyridazine-4-carboxamide] | 2.9
15 | Cc1ccc(NC(=O)c2cc(C(F)(F)F)ccn2)cc1-c1cc(N2CCOCC2)c(=O)n(C)c1 [Example 364, N-(4-methyl-3-(1-methyl-5-morpholino-6-oxo-1,6-dihydropyridin-3-yl)phenyl)-4-(trifluoromethyl)picolinamide] | 2.1
16 | Cc1ccc(NC(=O)c2cc(C(C)C)on2)cc1-c1cc(N2CCOCC2)c(=O)n(C)c1 [Example 371, 5-isopropyl-N-(4-methyl-3-(1-methyl-5-morpholino-6-oxo-1,6-dihydropyridin-3-yl)phenyl)isoxazole-3-carboxamide] | 0.8
17 | Cc1ccc(NC(=O)c2cc(C3CC3)on2)cc1-c1cc(N2CCOCC2)c(=O)n(C)c1 [Example 372, 5-cyclopropyl-N-(4-methyl-3-(1-methyl-5-morpholino-6-oxo-1,6-dihydropyridin-3-yl)phenyl)isoxazole-3-carboxamide] | 0.7

Second part, the compound after the results:

Row | IC50 [nM] | SMILES
18 | 1.2 | CCc1cc(C(=O)Nc2ccc(C)c(-c3cc(N4CCOCC4)c(=O)n(C)c3)c2)ccn1 [Example 353, 2-ethyl-N-(4-methyl-3-(1-methyl-5-morpholino-6-oxo-1,6-dihydropyridin-3-yl)phenyl)isonicotinamide]
19 | 2.5 | Cc1ccc(NC(=O)c2ccnc(C(C)(C)F)c2)cc1-c1cc(N2CCOCC2)c(=O)n(C)c1 [Example 355, 2-(2-fluoropropan-2-yl)-N-(4-methyl-3-(1-methyl-5-morpholino-6-oxo-1,6-dihydropyridin-3-yl)phenyl)isonicotinamide]
20 | 6 | Cc1ccc(NC(=O)c2cnnc(C(C)(C)C#N)c2)cc1-c1cc(N2CCOCC2)c(=O)n(C)c1 [Example 360, 6-(2-cyanopropan-2-yl)-N-(4-methyl-3-(1-methyl-5-morpholino-6-oxo-1,6-dihydropyridin-3-yl)phenyl)pyridazine-4-carboxamide]
21 | 3.8 | Cc1ccc(NC(=O)c2cnnc(C(C)(C)F)c2)cc1-c1cc(N2CCOCC2)c(=O)n(C)c1 [Example 363, 6-(2-fluoropropan-2-yl)-N-(4-methyl-3-(1-methyl-5-morpholino-6-oxo-1,6-dihydropyridin-3-yl)phenyl)pyridazine-4-carboxamide]
22 | 85.9 | CCn1cc(C(=O)Nc2ccc(C)c(-c3cc(N4CCOCC4)c(=O)n(C)c3)c2)c(C)n1 [Example 365, 1-ethyl-3-methyl-N-(4-methyl-3-(1-methyl-5-morpholino-6-oxo-1,6-dihydropyridin-3-yl)phenyl)-1H-pyrazole-4-carboxamide]
23 | 100 | Cc1ccc(NC(=O)c2cn(C)nc2C)cc1-c1cc(N2CCOCC2)c(=O)n(C)c1 [Example 366, 1,3-dimethyl-N-(4-methyl-3-(1-methyl-5-morpholino-6-oxo-1,6-dihydropyridin-3-yl)phenyl)-1H-pyrazole-4-carboxamide]
24 | 12.6 | Cc1ccc(NC(=O)c2cn(C(C)C)nc2C)cc1-c1cc(N2CCOCC2)c(=O)n(C)c1 [Example 367, 1-isopropyl-3-methyl-N-(4-methyl-3-(1-methyl-5-morpholino-6-oxo-1,6-dihydropyridin-3-yl)phenyl)-1H-pyrazole-4-carboxamide]
25 | 53.1 | Cc1ccc(NC(=O)c2cc(C(F)(F)F)nn2C)cc1-c1cc(N2CCOCC2)c(=O)n(C)c1 [Example 369, 1-methyl-N-(4-methyl-3-(1-methyl-5-morpholino-6-oxo-1,6-dihydropyridin-3-yl)phenyl)-3-(trifluoromethyl)-1H-pyrazole-5-carboxamide]
26 | 1100 | CCn1cc(C(=O)Nc2cnc(C)c(-c3cc(N4CCOCC4)c(=O)n(C)c3)c2)c(C)n1 [Example 373, N-(1′,2-dimethyl-5′-morpholino-6′-oxo-1′,6′-dihydro-[3,3′-bipyridin]-5-yl)-1-ethyl-3-methyl-1H-pyrazole-4-carboxamide]
27 | 3400 | Cc1nn(C)cc1C(=O)Nc1cnc(C)c(-c2cc(N3CCOCC3)c(=O)n(C)c2)c1 [Example 374, N-(1′,2-dimethyl-5′-morpholino-6′-oxo-1′,6′-dihydro-[3,3′-bipyridin]-5-yl)-1,3-dimethyl-1H-pyrazole-4-carboxamide]
28 | 200 | Cc1nn(C(C)C)cc1C(=O)Nc1cnc(C)c(-c2cc(N3CCOCC3)c(=O)n(C)c2)c1 [Example 375, N-(1′,2-dimethyl-5′-morpholino-6′-oxo-1′,6′-dihydro-[3,3′-bipyridin]-5-yl)-1-isopropyl-3-methyl-1H-pyrazole-4-carboxamide]
29 | 2800 | Cc1cc(C(=O)Nc2cnc(C)c(-c3cc(N4CCOCC4)c(=O)n(C)c3)c2)n(C)n1 [Example 376, N-(1′,2-dimethyl-5′-morpholino-6′-oxo-1′,6′-dihydro-[3,3′-bipyridin]-5-yl)-1,3-dimethyl-1H-pyrazole-5-carboxamide]
30 | 200 | Cc1ncc(NC(=O)c2cc(C3CC3)nn2C)cc1-c1cc(N2CCOCC2)c(=O)n(C)c1 [Example 377, 3-cyclopropyl-N-(1′,2-dimethyl-5′-morpholino-6′-oxo-1′,6′-dihydro-[3,3′-bipyridin]-5-yl)-1-methyl-1H-pyrazole-5-carboxamide]
31 | 12.5 | Cc1ncc(NC(=O)c2cc(C3CC3)on2)cc1-c1cc(N2CCOCC2)c(=O)n(C)c1 [Example 380, 5-cyclopropyl-N-(1′,2-dimethyl-5′-morpholino-6′-oxo-1′,6′-dihydro-[3,3′-bipyridin]-5-yl)isoxazole-3-carboxamide]
32 | 100 | Cc1cc(C(=O)Nc2ccc(C)c(-c3cc(N4CCOCC4)c(=O)n(C)c3)c2)n(C)n1 [Example 381, 1,3-dimethyl-N-(4-methyl-3-(1-methyl-5-morpholino-6-oxo-1,6-dihydropyridin-3-yl)phenyl)-1H-pyrazole-5-carboxamide]
33 | 900 | Cc1ncc(NC(=O)c2cc(C(F)(F)F)nn2C)cc1-c1cc(N2CCOCC2)c(=O)n(C)c1 [Example 382, N-(1′,2-dimethyl-5′-morpholino-6′-oxo-1′,6′-dihydro-[3,3′-bipyridin]-5-yl)-1-methyl-3-(trifluoromethyl)-1H-pyrazole-5-carboxamide]
